The supplement of paper PMC6045584
± gives the standard deviation of the averaged measurements.

Legend:
[1] = compound: C[C@@H](Oc1cc(-c2cnn(C3CCNCC3)c2)cnc1N)c1c(Cl)ccc(F)c1Cl; assay: surviving fraction relative to DMSO-only wells; higher = less growth inhibition; settings: exposure time: 5 days
Method in brief: (§1)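 Lines were retained only if, across three screens, replicate Pearson r was >0.7 and median Z' was >0.3. Viability was measured as CellTiter-Glo luminescence and reported as surviving fraction relative to the median of DMSO-only wells. Readings followed 10 minutes at room temperature, after log-phase tumour cells seeded at 250–500 per well in 384-well plates had been exposed, from 24 hours after seeding, continuously for five days to inhibitors at 0.5, 1, 5, 10, 50, 100, 500 and 1000 nM.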

[2] = compound: COc1cc2ncnc(Nc3ccc(F)c(Cl)c3)c2cc1NC(=O)/C=C/CN1CCCCC1; assay: as above; settings: exposure time: 5 days
Method in brief: as §1

Test System	surviving fraction ([1]; 0.5 nM)	surviving fraction ([1]; 1 nM)	surviving fraction ([1]; 5 nM)	surviving fraction ([1]; 10 nM)	surviving fraction ([1]; 50 nM)	surviving fraction ([1]; 100 nM)	surviving fraction ([1]; 500 nM)	surviving fraction ([1]; 1000 nM)	surviving fraction ([2]; 0.5 nM)	surviving fraction ([2]; 1 nM)	surviving fraction ([2]; 5 nM)	surviving fraction ([2]; 10 nM)	surviving fraction ([2]; 50 nM)	surviving fraction ([2]; 100 nM)	surviving fraction ([2]; 500 nM)	surviving fraction ([2]; 1000 nM)
JIMT1 BREAST	0.869 ± 0.035	0.834 ± 0.024	0.893 ± 0.04	0.862 ± 0.033	0.971 ± 0.045	0.959 ± 0.038	0.634 ± 0.075	0.517 ± 0.042	1 ± 0.044	0.989 ± 0.031	0.91883 ± 0.00029	0.862 ± 0.012	0.653 ± 0.013	0.667 ± 0.016	0.545 ± 0.019	0.362 ± 0.025
NOS1 BONE	0.889 ± 0.05	0.856 ± 0.046		0.929 ± 0.1	1.17 ± 0.06	0.988 ± 0.04	0.742 ± 0.055	0.401 ± 0.026	1.1 ± 0.045	1.15 ± 0.077	1.14 ± 0.051	1.17 ± 0.094	1.12 ± 0.16	0.968 ± 0.033	0.26 ± 0.011	0.135 ± 0.012
HOSMNG BONE	0.985 ± 0.018	1 ± 0.02	0.949 ± 0.016	0.949 ± 0.039	0.637 ± 0.066	0.518 ± 0.016	0.262 ± 0.013	0.17 ± 0.0051	0.909 ± 0.07	0.924 ± 0.11	0.958 ± 0.063	0.917 ± 0.086	1.033 ± 0.0083	1.02 ± 0.046	0.97 ± 0.1	0.953 ± 0.017
BT549 BREAST	0.76 ± 0.093	0.99 ± 0.11		0.905 ± 0.019	1.1 ± 0.073			0.371 ± 0.042	0.991 ± 0.049	1.1 ± 0.15	1.02 ± 0.17	1.06 ± 0.13	1 ± 0.037	0.927 ± 0.14	0.727 ± 0.058	0.473 ± 0.08
CAL120 BREAST	0.912 ± 0.011		0.908 ± 0.029	0.898 ± 0.02		0.935 ± 0.017	0.676 ± 0.091	0.547 ± 0.013	0.98 ± 0.016	0.952 ± 0.014	0.965 ± 0.021	0.973 ± 0.038	0.959 ± 0.022	0.961 ± 0.04	0.837 ± 0.025	0.543 ± 0.019
VP229 BREAST	0.809 ± 0.029		0.95 ± 0.11	0.777 ± 0.12	1.08 ± 0.098			0.544 ± 0.024	1.02 ± 0.1	1.18 ± 0.056	0.663 ± 0.12	0.638 ± 0.086	0.306 ± 0.011	0.287 ± 0.026	0.2307 ± 0.00058	0.191 ± 0.029
HT1080 SOFT TISSUE	1 ± 0.018		1.02 ± 0.011	0.991 ± 0.059			0.953 ± 0.036	0.638 ± 0.047	1.02 ± 0.015	1.01 ± 0.023	0.964 ± 0.0098	0.984 ± 0.026	1.03 ± 0.015	0.981 ± 0.034	0.9 ± 0.04	0.751 ± 0.045
ZR751 BREAST	0.874 ± 0.087	0.924 ± 0.052	0.873 ± 0.082	0.797 ± 0.046	0.82 ± 0.14	0.967 ± 0.052	0.727 ± 0.074	0.699 ± 0.077	1.07 ± 0.11	0.919 ± 0.043	0.791 ± 0.018	0.859 ± 0.076	0.762 ± 0.095	0.768 ± 0.04	0.625 ± 0.056	0.415 ± 0.087
HCC202 BREAST	1.31 ± 0.55	1.08 ± 0.25	1.31 ± 0.015	1.05 ± 0.069	1.32 ± 0.23	1.37 ± 0.17			1.1 ± 0.1	1.06 ± 0.15	0.723 ± 0.13	0.757 ± 0.14	0.373 ± 0.041	0.297 ± 0.067	0.131 ± 0.026	0.0933 ± 0.023
CAL51 BREAST	0.958 ± 0.033	0.918 ± 0.099	1 ± 0.023	0.909 ± 0.049	0.972 ± 0.046	0.949 ± 0.026	0.215 ± 0.017	0.175 ± 0.0096	0.985 ± 0.05	1.03 ± 0.076	1 ± 0.086	0.968 ± 0.031	1.03 ± 0.08	1.02 ± 0.1	0.9793 ± 0.0063	0.848 ± 0.027
SG28 HEADNECK		0.918 ± 0.053	0.85 ± 0.067		1 ± 0.042	1.07 ± 0.098		0.764 ± 0.12	0.962 ± 0.064	0.924 ± 0.058	0.626 ± 0.026	0.54 ± 0.013	0.514 ± 0.029	0.494 ± 0.025	0.375 ± 0.037	0.238 ± 0.019
SG31 HEADNECK		0.821 ± 0.04	0.821 ± 0.059	0.843 ± 0.18	0.847 ± 0.063	0.845 ± 0.088	0.755 ± 0.061	0.485 ± 0.07	0.973 ± 0.13	0.87 ± 0.19	0.617 ± 0.16	0.624 ± 0.086	0.556 ± 0.14	0.519 ± 0.07	0.486 ± 0.1	0.524 ± 0.021
SAOS2 BONE	0.7737 ± 0.0011	0.866 ± 0.018		0.874 ± 0.036	1.06 ± 0.08	0.971 ± 0.046	0.319 ± 0.012	0.164 ± 0.012	1.17 ± 0.02	1.14 ± 0.017	1.14 ± 0.038	1.13 ± 0.07	1.1 ± 0.062	1.13 ± 0.064	0.762 ± 0.044	0.513 ± 0.028
SCC36 HEADNECK	0.784 ± 0.039	0.784 ± 0.07	0.742 ± 0.077	0.742 ± 0.071	0.913 ± 0.021		0.403 ± 0.022	0.255 ± 0.011	0.84 ± 0.054	0.889 ± 0.024	0.656 ± 0.059	0.618 ± 0.0085	0.432 ± 0.014	0.424 ± 0.057	0.338 ± 0.022	0.235 ± 0.013
DU4475 BREAST	0.798 ± 0.13	0.753 ± 0.041	0.83 ± 0.15	0.706 ± 0.14	0.748 ± 0.089	0.722 ± 0.23	0.423 ± 0.18	0.0877 ± 0.041	0.798 ± 0.057	0.876 ± 0.044	0.901 ± 0.12	0.987 ± 0.21	0.908 ± 0.14	1.09 ± 0.14	1.14 ± 0.19	0.985 ± 0.054
HOS BONE	0.934 ± 0.018	0.938 ± 0.019	0.966 ± 0.03		1.008 ± 0.0042	0.997 ± 0.038	0.571 ± 0.029	0.499 ± 0.023	1.017 ± 0.0078	1 ± 0.018	1.02 ± 0.017	1.02 ± 0.015	1.05 ± 0.019	1.04 ± 0.023	0.951 ± 0.057	0.888 ± 0.032
CHLA90 AUTONOMIC GANGLIA	0.996 ± 0.039		0.855 ± 0.042		0.812 ± 0.037	0.785 ± 0.019	0.479 ± 0.029	0.328 ± 0.023	1 ± 0.048	0.982 ± 0.085	0.853 ± 0.049	0.834 ± 0.016	0.818 ± 0.023	0.769 ± 0.048	0.781 ± 0.04	0.596 ± 0.022
HCC1954 BREAST	0.364 ± 0.042	0.353 ± 0.084	0.426 ± 0.06	0.401 ± 0.021	0.472 ± 0.019	0.473 ± 0.036	0.443 ± 0.11	0.4677 ± 0.0032	1.11 ± 0.075	0.808 ± 0.064	0.756 ± 0.028	0.722 ± 0.084	0.508 ± 0.0074	0.471 ± 0.0092	0.283 ± 0.013	0.155 ± 0.018
